Measured values: ChEMBL document CHEMBL1136926 (J Med Chem, 2009)
Positions of bridges follow the written chain, without caps; N, C: chain ends. Non-standard residues stand in square brackets, D forms with d. Residues, ends and D or L forms follow the SMILES beside them. Phe(4-NO2) = N[C@@H](Cc1ccc([N+](=O)[O-])cc1)C(=O)O; Phe(4-Cl) = N[C@@H](Cc1ccc(Cl)cc1)C(=O)O; 1Nal = N[C@@H](Cc1cccc2ccccc12)C(=O)O; 2Nal = N[C@@H](Cc1ccc2ccccc2c1)C(=O)O; Tic = O=C(O)[C@@H]1Cc2ccccc2CN1; Pen = CC(C)(S)[C@H](N)C(=O)O

Assays:
Urotensin-2 receptor [1] = biological target: T1, Urotensin-2 receptor (Homo sapiens, UniProt Q9UKP6); test: Displacement of [125I]urotensin-2 from human UT2 receptor expressed in CHO-K1 cells by liquid scintillation counting; type: cell-based
T1 sequence (Q9UKP6 whole entry): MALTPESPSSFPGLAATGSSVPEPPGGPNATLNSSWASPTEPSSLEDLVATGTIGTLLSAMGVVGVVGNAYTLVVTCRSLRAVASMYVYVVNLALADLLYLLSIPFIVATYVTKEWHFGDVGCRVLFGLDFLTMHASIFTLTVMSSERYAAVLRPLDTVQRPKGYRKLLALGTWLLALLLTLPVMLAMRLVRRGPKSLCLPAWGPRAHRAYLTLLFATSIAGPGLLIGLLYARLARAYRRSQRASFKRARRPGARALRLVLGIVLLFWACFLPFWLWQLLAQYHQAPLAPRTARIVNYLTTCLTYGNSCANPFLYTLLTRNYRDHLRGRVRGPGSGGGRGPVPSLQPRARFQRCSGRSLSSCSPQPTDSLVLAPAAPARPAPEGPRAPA

Urotensin-2 receptor [2] = biological target: T2, Urotensin-2 receptor (Rattus norvegicus, UniProt P49684); test: Agonist activity at UT2 receptor in Albino rat aorta assessed as induction of aortic contraction
T2 sequence (P49684 whole entry): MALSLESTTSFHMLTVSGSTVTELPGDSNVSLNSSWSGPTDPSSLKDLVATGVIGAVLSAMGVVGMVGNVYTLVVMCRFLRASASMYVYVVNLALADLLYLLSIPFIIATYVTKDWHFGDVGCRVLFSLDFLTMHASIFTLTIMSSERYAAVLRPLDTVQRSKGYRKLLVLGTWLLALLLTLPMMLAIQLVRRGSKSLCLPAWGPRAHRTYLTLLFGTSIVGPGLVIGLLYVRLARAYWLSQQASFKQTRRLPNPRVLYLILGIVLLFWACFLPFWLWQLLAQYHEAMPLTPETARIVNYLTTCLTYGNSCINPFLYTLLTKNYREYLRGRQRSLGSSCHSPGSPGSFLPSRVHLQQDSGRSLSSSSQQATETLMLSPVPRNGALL

[3] = biological target: T3, Urotensin-2 receptor (Rattus norvegicus) (UniProt P49684); test: Antagonist activity at UT2 receptor in Albino rat aorta assessed as inhibition of […] aortic contraction; type: functional, tissue-based
T3 sequence (whole entry): T2 sequence (P49684 whole entry)

For `CC(C)[C@H](NC(=O)[C@@H]1CSSC(C)(C)[C@H](NC(=O)[C@H](C)N)C(=O)N[C@@H](Cc2ccccc2)C(=O)N[C@H](Cc2c[nH]c3ccccc23)C(=O)N[C@@H](CCCN)C(=O)N[C@@H](Cc2ccc(O)cc2)C(=O)N1)C(=O)O`, the Ki (Urotensin-2 receptor [1]) was 1.66 nM.

`CC(C)[C@H](NC(=O)[C@@H]1CSSC(C)(C)[C@H](NC(=O)[C@@H](N)Cc2ccc([N+](=O)[O-])cc2)C(=O)N[C@@H](Cc2ccccc2)C(=O)N[C@H](Cc2c[nH]c3ccccc23)C(=O)N[C@@H](CCCN)C(=O)N[C@@H](Cc2ccc(O)cc2)C(=O)N1)C(=O)O` was tested, and the Ki (Urotensin-2 receptor [1]) was 15.8 nM.

For `CC(C)[C@H](NC(=O)[C@@H]1CSSC(C)(C)[C@H](NC(=O)[C@@H](N)Cc2ccccc2)C(=O)N[C@@H](Cc2ccccc2)C(=O)N[C@H](Cc2c[nH]c3ccccc23)C(=O)N[C@@H](CCCN)C(=O)N[C@@H](Cc2ccc(O)cc2)C(=O)N1)C(=O)O`, the Ki (Urotensin-2 receptor [1]) was 19.5 nM.

`CC(C)[C@H](NC(=O)[C@@H]1CSSC(C)(C)[C@H](NC(=O)[C@@H](N)Cc2ccc(Cl)cc2)C(=O)N[C@@H](Cc2ccccc2)C(=O)N[C@H](Cc2c[nH]c3ccccc23)C(=O)N[C@@H](CCCN)C(=O)N[C@@H](Cc2ccc(O)cc2)C(=O)N1)C(=O)O` gave a Ki (Urotensin-2 receptor [1]) of 9.55 nM.

Work on `CC(C)[C@H](NC(=O)[C@@H]1CSSC(C)(C)[C@H](NC(=O)[C@@H](N)CCCCN)C(=O)N[C@@H](Cc2ccccc2)C(=O)N[C@H](Cc2c[nH]c3ccccc23)C(=O)N[C@@H](CCCN)C(=O)N[C@@H](Cc2ccc(O)cc2)C(=O)N1)C(=O)O` yielded a Ki (Urotensin-2 receptor [1]) of 219 nM.

`CC(C)[C@H](NC(=O)[C@@H]1CSSC(C)(C)[C@H](NC(=O)[C@@H](N)Cc2cccc3ccccc23)C(=O)N[C@@H](Cc2ccccc2)C(=O)N[C@H](Cc2c[nH]c3ccccc23)C(=O)N[C@@H](CCCN)C(=O)N[C@@H](Cc2ccc(O)cc2)C(=O)N1)C(=O)O` gave a Ki (Urotensin-2 receptor [1]) of 3.89 nM.

Compound `CC(C)[C@H](NC(=O)[C@@H]1CSSC(C)(C)[C@H](NC(=O)[C@@H]2Cc3ccccc3CN2)C(=O)N[C@@H](Cc2ccccc2)C(=O)N[C@H](Cc2c[nH]c3ccccc23)C(=O)N[C@@H](CCCN)C(=O)N[C@@H](Cc2ccc(O)cc2)C(=O)N1)C(=O)O` has a Ki (Urotensin-2 receptor [1]) of 9.33 nM.

Work on `CC(C)[C@H](NC(=O)[C@@H]1CSSC(C)(C)[C@H](NC(=O)[C@@H](N)Cc2ccc3ccccc3c2)C(=O)N[C@@H](Cc2ccccc2)C(=O)N[C@H](Cc2c[nH]c3ccccc23)C(=O)N[C@@H](CCCN)C(=O)N[C@@H](Cc2ccc(O)cc2)C(=O)N1)C(=O)O` yielded a Ki (Urotensin-2 receptor [1]) of 11.7 nM.

`CC(C)[C@H](NC(=O)[C@@H]1CSSC(C)(C)[C@H](NC(=O)[C@H](C)N)C(=O)N[C@@H](Cc2ccccc2)C(=O)N[C@@H](Cc2c[nH]c3ccccc23)C(=O)N[C@@H](CCCCN)C(=O)N[C@@H](Cc2ccc(O)cc2)C(=O)N1)C(=O)O` showed a Ki (Urotensin-2 receptor [1]) of 0.794 nM and an EC50 (Urotensin-2 receptor [2]) of 9.12 nM.

Compound `CC(C)[C@H](NC(=O)[C@@H]1CSSC(C)(C)[C@@H](NC(=O)[C@@H](N)CCCCN)C(=O)N[C@@H](Cc2ccccc2)C(=O)N[C@H](Cc2c[nH]c3ccccc23)C(=O)N[C@@H](CCCN)C(=O)N[C@@H](Cc2ccc(O)cc2)C(=O)N1)C(=O)O` has a pKb [3] of 7.49.

Compound `CC(C)[C@H](NC(=O)[C@@H]1CSSC(C)(C)[C@@H](NC(=O)[C@@H](N)Cc2ccc(Cl)cc2)C(=O)N[C@@H](Cc2ccccc2)C(=O)N[C@H](Cc2c[nH]c3ccccc23)C(=O)N[C@@H](CCCN)C(=O)N[C@@H](Cc2ccc(O)cc2)C(=O)N1)C(=O)O` has a pKb [3] of 7.85.

Work on `CC(C)[C@H](NC(=O)[C@@H]1CSSC(C)(C)[C@@H](NC(=O)[C@@H](N)Cc2ccc([N+](=O)[O-])cc2)C(=O)N[C@@H](Cc2ccccc2)C(=O)N[C@H](Cc2c[nH]c3ccccc23)C(=O)N[C@@H](CCCN)C(=O)N[C@@H](Cc2ccc(O)cc2)C(=O)N1)C(=O)O` yielded a pKb [3] of 7.9.

With `CC(C)[C@H](NC(=O)[C@@H]1CSSC(C)(C)[C@@H](NC(=O)[C@@H](N)Cc2ccc3ccccc3c2)C(=O)N[C@@H](Cc2ccccc2)C(=O)N[C@H](Cc2c[nH]c3ccccc23)C(=O)N[C@@H](CCCN)C(=O)N[C@@H](Cc2ccc(O)cc2)C(=O)N1)C(=O)O` the pKb [3] was 7.89.

`CC(C)[C@H](NC(=O)[C@@H]1CSSC(C)(C)[C@@H](NC(=O)[C@@H](N)Cc2cccc3ccccc23)C(=O)N[C@@H](Cc2ccccc2)C(=O)N[C@H](Cc2c[nH]c3ccccc23)C(=O)N[C@@H](CCCN)C(=O)N[C@@H](Cc2ccc(O)cc2)C(=O)N1)C(=O)O` gave a pKb [3] of 8.5.

`CC(C)[C@H](NC(=O)[C@@H]1CSSC(C)(C)[C@@H](NC(=O)[C@@H](N)Cc2ccccc2)C(=O)N[C@@H](Cc2ccccc2)C(=O)N[C@H](Cc2c[nH]c3ccccc23)C(=O)N[C@@H](CCCN)C(=O)N[C@@H](Cc2ccc(O)cc2)C(=O)N1)C(=O)O` gave a pKb [3] of 8.68.

For `CC(C)[C@H](NC(=O)[C@@H]1CSSC(C)(C)[C@@H](NC(=O)[C@@H]2Cc3ccccc3CN2)C(=O)N[C@@H](Cc2ccccc2)C(=O)N[C@H](Cc2c[nH]c3ccccc23)C(=O)N[C@@H](CCCN)C(=O)N[C@@H](Cc2ccc(O)cc2)C(=O)N1)C(=O)O`, the pKb [3] was 8.94.

Compound `CC(C)[C@H](NC(=O)[C@@H]1CSSC(C)(C)[C@@H](NC(=O)[C@H](C)N)C(=O)N[C@@H](Cc2ccccc2)C(=O)N[C@H](Cc2c[nH]c3ccccc23)C(=O)N[C@@H](CCCN)C(=O)N[C@@H](Cc2ccc(O)cc2)C(=O)N1)C(=O)O` has a pKb [3] of 7.84.

With `CC(C)[C@H](NC(=O)[C@@H]1CSSC[C@H](NC(=O)[C@@H](N)CC(=O)O)C(=O)N[C@@H](Cc2ccccc2)C(=O)N[C@@H](Cc2c[nH]c3ccccc23)C(=O)N[C@@H](CCCCN)C(=O)N[C@@H](Cc2ccc(O)cc2)C(=O)N1)C(=O)O` (H-DCFWKYCV-OH; disulfide 2-7) the EC50 (Urotensin-2 receptor [2]) was 2.51 nM.

With `CC(C)[C@H](NC(=O)[C@@H]1CSSC(C)(C)[C@H](NC(=O)[C@@H](N)CC(=O)O)C(=O)N[C@@H](Cc2ccccc2)C(=O)N[C@@H](Cc2c[nH]c3ccccc23)C(=O)N[C@@H](CCCCN)C(=O)N[C@@H](Cc2ccc(O)cc2)C(=O)N1)C(=O)O` (H-D[Pen]FWKYCV-OH; disulfide 2-7) the EC50 (Urotensin-2 receptor [2]) was 0.251 nM.

In the case of `CC(C)[C@H](NC(=O)[C@@H]1CSSC(C)(C)[C@H](NC(=O)[C@@H](N)Cc2ccccc2)C(=O)N[C@@H](Cc2ccccc2)C(=O)N[C@@H](Cc2c[nH]c3ccccc23)C(=O)N[C@@H](CCCCN)C(=O)N[C@@H](Cc2ccc(O)cc2)C(=O)N1)C(=O)O` (H-F[Pen]FWKYCV-OH; disulfide 2-7), the Ki (Urotensin-2 receptor [1]) is reported as 0.282 nM and the EC50 (Urotensin-2 receptor [2]) is reported as 0.661 nM.

In the case of `CC(C)[C@H](NC(=O)[C@@H]1CSSC(C)(C)[C@H](NC(=O)[C@@H](N)CCCCN)C(=O)N[C@@H](Cc2ccccc2)C(=O)N[C@@H](Cc2c[nH]c3ccccc23)C(=O)N[C@@H](CCCCN)C(=O)N[C@@H](Cc2ccc(O)cc2)C(=O)N1)C(=O)O` (H-K[Pen]FWKYCV-OH; disulfide 2-7), the Ki (Urotensin-2 receptor [1]) is reported as 9.33 nM and the EC50 (Urotensin-2 receptor [2]) is reported as 6.03 nM.

For `CC(C)[C@H](NC(=O)[C@@H]1CSSC(C)(C)[C@H](NC(=O)[C@@H](N)Cc2cccc3ccccc23)C(=O)N[C@@H](Cc2ccccc2)C(=O)N[C@@H](Cc2c[nH]c3ccccc23)C(=O)N[C@@H](CCCCN)C(=O)N[C@@H](Cc2ccc(O)cc2)C(=O)N1)C(=O)O` (H-[1Nal][Pen]FWKYCV-OH; disulfide 2-7), the Ki (Urotensin-2 receptor [1]) was 26.3 nM and the EC50 (Urotensin-2 receptor [2]) was 102 nM.

Work on `CC(C)[C@H](NC(=O)[C@@H]1CSSC(C)(C)[C@H](NC(=O)[C@@H](N)Cc2ccc3ccccc3c2)C(=O)N[C@@H](Cc2ccccc2)C(=O)N[C@@H](Cc2c[nH]c3ccccc23)C(=O)N[C@@H](CCCCN)C(=O)N[C@@H](Cc2ccc(O)cc2)C(=O)N1)C(=O)O` (H-[2Nal][Pen]FWKYCV-OH; disulfide 2-7) yielded a Ki (Urotensin-2 receptor [1]) of 6.46 nM and an EC50 (Urotensin-2 receptor [2]) of 5.25 nM.

`CC(C)[C@H](NC(=O)[C@@H]1CSSC(C)(C)[C@H](NC(=O)[C@@H](N)Cc2ccc(Cl)cc2)C(=O)N[C@@H](Cc2ccccc2)C(=O)N[C@@H](Cc2c[nH]c3ccccc23)C(=O)N[C@@H](CCCCN)C(=O)N[C@@H](Cc2ccc(O)cc2)C(=O)N1)C(=O)O` (H-[Phe(4-Cl)][Pen]FWKYCV-OH; disulfide 2-7) was tested, and the Ki (Urotensin-2 receptor [1]) was 0.891 nM and the EC50 (Urotensin-2 receptor [2]) was 1.38 nM.

Work on `CC(C)[C@H](NC(=O)[C@@H]1CSSC(C)(C)[C@H](NC(=O)[C@@H](N)Cc2ccc([N+](=O)[O-])cc2)C(=O)N[C@@H](Cc2ccccc2)C(=O)N[C@@H](Cc2c[nH]c3ccccc23)C(=O)N[C@@H](CCCCN)C(=O)N[C@@H](Cc2ccc(O)cc2)C(=O)N1)C(=O)O` (H-[Phe(4-NO2)][Pen]FWKYCV-OH; disulfide 2-7) yielded a Ki (Urotensin-2 receptor [1]) of 13.5 nM and an EC50 (Urotensin-2 receptor [2]) of 72.4 nM.

`CC(C)[C@H](NC(=O)[C@@H]1CSSC(C)(C)[C@H](NC(=O)[C@@H]2Cc3ccccc3CN2)C(=O)N[C@@H](Cc2ccccc2)C(=O)N[C@@H](Cc2c[nH]c3ccccc23)C(=O)N[C@@H](CCCCN)C(=O)N[C@@H](Cc2ccc(O)cc2)C(=O)N1)C(=O)O` (H-[Tic][Pen]FWKYCV-OH; disulfide 2-7) gave a Ki (Urotensin-2 receptor [1]) of 2.63 nM and an EC50 (Urotensin-2 receptor [2]) of 1.35 nM.

`CC(C)[C@H](NC(=O)[C@@H]1CSSC[C@H](NC(=O)[C@H](CC(=O)O)NC(=O)[C@@H]2CCCN2C(=O)[C@@H](NC(=O)[C@@H](N)CCC(=O)O)[C@@H](C)O)C(=O)N[C@@H](Cc2ccccc2)C(=O)N[C@@H](Cc2c[nH]c3ccccc23)C(=O)N[C@@H](CCCCN)C(=O)N[C@@H](Cc2ccc(O)cc2)C(=O)N1)C(=O)O` [HUMAN UROTENSIN II] showed an EC50 (Urotensin-2 receptor [2]) of 5.01 nM.
